From US11040108B2, “Amino acid- and peptide-steroid conjugates and use thereof” (BRANDEIS UNIVERSITY, priority 2016, dated 2021)
Read-outs that look alike come from different tables or passages of the source.

Columns and labels:
T98G glioblastoma cells = assay: MTT assay, cell viability of T98G; type: cell-based; conditions: Homo sapiens, read-out: IC50 against T98G
Method: HeLa, Saos-2, HS-5, HepG2, T98G, and A2780 cells were purchased from American-type Culture Collection (ATCC, USA). A2780cis cell was purchased from Sigma. HeLa cells, HepG-2 cells, and T98G cells were cultured in MEM Medium supplemented with 10% v/v fetal bovine serum, 100 U/mL penicillin, and 100 μg/mL streptomycin. Saos-2 cells were cultured in McCoy's 5a Medium (for Saos-2) supplemented with 15% v/v fetal bovine serum, 100 U/mL penicillin, and 100 μg/mL streptomycin. HS-5 cells were cultured in Dulbecco's Modified Eagle's medium (DMEM) supplemented with 10% v fetal bovine serum (FBS), 100 U/mL penicillin, and 100 μg/mL streptomycin. A2780cis cells were cultured in RPMI 1640 Medium supplemented with 10% v/v fetal bovine serum, 100 U/mL penicillin, and 100 μg/mL streptomycin (cisplatin only necessary every 2-3 passages). All cells were maintained at 37° C. in a humidified atmosphere of 5% CO2.
An MTT assay was used to test the cytotoxicity. All different cell lines were seeded in 96-well plates at 1×10^5 cells/well for 24 hours followed by removal of the culture medium and subsequent addition of culture medium containing different concentrations of the precursors. […] The absorbance of each well at 595 nm was measured by a multimode microplate reader. […]

A2780 cell line = assay: Cell viability of unstimulated or selected A2780 cell line (acquired resistance); type: cell-based; conditions: after five weeks treatment with gradually increased concentrations; 24, 48, 72 h
Method: An MTT assay was used to test the cytotoxicity. All different cell lines were seeded in 96-well plates at 1×10^5 cells/well for 24 hours followed by removal of the culture medium and subsequent addition of culture medium containing different concentrations of the precursors. At designated time (24/48/72 hours), 10 μL MTT solution (5 mg/mL) was added to each well and incubated at 37° C. for another 4 hours, and then 100 μL of SDS-HCl solution was added to stop the reduction reaction and dissolve the purple formazan. The absorbance of each well at 595 nm was measured by a multimode microplate reader. The cytotoxicity assay was performed three times and the average value of the three measurements was taken.
The activity of 1a against non-drug resistant cancer cells was assessed using the A2780 cell line.

[1] = system: cell death receptors (CD95, DR3, DR5, TNFR1, TNFR2) on A2780cis cells; assay: Antibody staining of cell death receptors (CLSM); type: cell-based, human; conditions: 1a 12.5 μM, 12 or 24 hours
Method: Procedure recommended by ABCAM for antibody staining was used. Cells were seeded (100,000-200,000 cell/3.5 cm confocal dish) and attachment was allowed (24 hours). Cells were incubated with 12.5 μM of precursor 1a for 12 hours or 24 hours. Then the cells were washed with PBS buffer three times and fixed by 4% formaldehyde for 15 minutes. Fixed cells were then washed with PBS buffer three times and incubated in 1.0% BSA/10% normal goat serum/0.3M glycine in 0.1% PBS-Tween for 1 hour to permeabilize the cells and block non-specific protein-protein interactions. Then they were washed with PBS buffer three times and incubated with the primary antibody (diluted 1/100, overnight at 4° C.). Then they were washed with PBS buffer three times and exposed to the secondary antibody (ab150077 Alexa Fluor® 488 goat anti-rabbit IgG (H+L), green) at 2 μg/ml (diluted 1/1000) for 1 hour. Hoechst 33342 was used to stain the cell nuclei (blue). The sample was washed with PBS buffer three times and mounted for imaging.
Antibody staining was used to examine the extrinsic cell death signaling molecules induced by the assemblies of 1b. […]

[2] = system: F-actin in A2780cis cells; assay: Actin staining (CLSM), A2780cis; type: cell-based, human; conditions: 1a 12.5 μM, 12 hours
Method: Cells in exponential growth phase were seeded in confocal dish (3.5 cm) at 1×10^5 to 2×10^5 cells per dish. After putting the dish in incubator for 24 hours, culture medium was removed, and fresh medium containing precursor (12.5 μM 1a for A2780cis, 25 μM 1a for HeLa) was added. After 12 hours, the medium was removed and PBS was used to wash the cells for three times. After fixing by 4% paraformaldehyde for 15 minutes, 1 mL of 0.1% Triton X-100 in PBS buffer was added for 30 minutes. After washing the cells three times by PBS, 1 mL of 0.1% BSA in PBS was added for 30 minutes, and then the cells were washed by PBS for three times. 1 mL of PBS containing 5 unit of Alexa 633 was added to the cells for 1 hour. After removing the buffer and washing the cells three times by PBS, 1 mL of Hoechst (1 μg/mL) was added for 10 minutes. Then, the cells were washed three times with PBS buffer before imaging. […]

F-actin in HeLa cells = assay: Actin staining (CLSM), HeLa; type: cell-based, human; conditions: 1a 25 μM, 12 hours
Method: Cells in exponential growth phase were seeded in confocal dish (3.5 cm) at 1×10^5 to 2×10^5 cells per dish. After putting the dish in incubator for 24 hours, culture medium was removed, and fresh medium containing precursor (12.5 μM 1a for A2780cis, 25 μM 1a for HeLa) was added. After 12 hours, the medium was removed and PBS was used to wash the cells for three times. After fixing by 4% paraformaldehyde for 15 minutes, 1 mL of 0.1% Triton X-100 in PBS buffer was added for 30 minutes. After washing the cells three times by PBS, 1 mL of 0.1% BSA in PBS was added for 30 minutes, and then the cells were washed by PBS for three times. 1 mL of PBS containing 5 unit of Alexa 633 was added to the cells for 1 hour. After removing the buffer and washing the cells three times by PBS, 1 mL of Hoechst (1 μg/mL) was added for 10 minutes. Then, the cells were washed three times with PBS buffer before imaging.
Similar to the case of A2780cis, the change of the viability of the HeLa cells co-incubated with 1a and several specific inhibitors was examined to understand the mechanism of cell death. […] To verify the assemblies of 1b interact with F-actin, actin tracker was used to visualize F-actin filament in HeLa cells.

With `CC(C)CCC[C@@H](C)C1CC[C@H]2[C@@H]3CC=C4CC(OC(=O)NC(Cc5ccc(OP(=O)(O)O)cc5)C(=O)O)CC[C@]4(C)[C@H]3CC[C@]12C` (stereo partly drawn) [1a, Cholesterol-(phospho)D-Tyr] the IC50 (T98G glioblastoma cells; 48 hours) was 48 µM, the IC50 (T98G glioblastoma cells; 72 hours) was 37 µM and the “inhibition of A2780 and acquired drug resistance” value (A2780 cell line) was “able to inhibit ovarian cancer cells without acquired drug resistance”. For the same molecule, the “clustering of DR3 or TNF-R1” value [1] was “rather moderate”, the “clustering of DR5” value [1] was “significant clustering” and the F-actin filaments [2] was “short, ill-defined actin filament”. For the same molecule, the F-actin filaments (F-actin in HeLa cells) was “considerably decreased actin filaments”.
